From patent publication US20060286608A1, “Method for screening transglutaminase 2 inhibitor or activator” (priority 2005, published 2006)

Columns and labels:
BV-2 microglia = assay: Nitric oxide measurement (Griess reaction) in LPS-activated BV-2 microglia; type: cell-based, murine; conditions: BV-2 microglia, after 24 hours of LPS treatment (100 μg/ml)
Procedure: (§1) The BV-2 cells were grown and maintained in DMEM (Dulvecco's modified Eagle's medium) (Invitrogen) supplemented with 10% FCS (fetal calf serum) and penicillin/streptomycin at 37° C. in a humidified incubator under 5% CO2. To activate BV-2, the cells were treated with LPS (100 μg/ml; Sigma) for 24 hours. After LPS treatment for 24 hours with or without inducible nitric-oxide synthase(iNOS) inhibitor, 0, 50, and 100 μM N^G-monomethyl-L-arginine(L-NMMA) (Sigma), proteins were extracted with radioimmunoprecipitation assay buffer (1× phosphate-buffered saline (PBS), 1% Nonidet P-40, 0.5% sodium deoxycholate and 0.1% SDS) containing protease inhibitors from BV-2 harvest, followed by analysis for TGase 2 activity.
Accumulated nitric oxide was measured in the cell supernatant after LPS treatment for 24 hours by Griess reaction. A 200 μl aliquot of the cell supernatant in each well of a 96-well microtiter plate was mixed with 100 μl of the Griess reagent [1% sulfanilamide (Fluka), 0.1% naphthylethylenediamine dihydrochloride (Fluka), 2.5% H3PO4], and the absorbance was read at 540 nm using a plate reader.

TGase 2 [1] = assay: Semi-quantitative RT-PCR of mouse TGase 2 in BV-2 cells; type: cell-based; conditions: BV-2 cells treated with LPS
Procedure: (§2) Semi-quantitative RT-PCR was performed using competitive mimic templates as internal controls. To prepare total RNA for RT-PCR, the cells were lysed with a TRIzol reagent. Samples of the total RNA were reverse-transcribed at 42° C. using the first strand synthesis kit (Promega) with avian myeloblastosis virus reverse transcriptase, and PCR was performed for the transcripts of iNOS and TGase 2 using corresponding specific primer sets. For each PCR, 1.5 mM MgCl2, 200 μM dNTP, 0.2 μM of each primer, 0.5 unit Taq polymerase, and a predetermined amount of a template were contained in a volume of 20 μl. The mimic templates of TGase 2 and iNOS were constructed by PCR. The mimics of mouse TGase 2 and mouse iNOS were prepared from 2014-2338 bp and 1451-2043 bp, respectively. RT-PCR products thus obtained were 526 bp for target TGase 2, 345 bp for mimic TGase 2, 593 bp for target iNOS, and 345 bp for mimic iNOS. For the RT-PCR, a primer set of SEQ. ID. NOS. 1 and 2, and a primer set of SEQ. ID. NOS.

TGase 2 [2] = assay: TGase activity assay in LPS-activated BV-2 microglia; type: cell-based, murine; conditions: BV-2 microglia, after 24 hours of LPS treatment (100 μg/ml)
Procedure: as §1
Enzymatic activity was determined using a modified TGase assay method for measuring the incorporation of [1,4-^14C] putrescine into succinylated casein.

iNOS = assay: Semi-quantitative RT-PCR of mouse iNOS in BV-2 cells; type: cell-based; conditions: BV-2 cells treated with LPS
Procedure: as §2

TGase 2 [3] = assay: Immunohistochemical staining of TGase 2 in rat brain after LPS injection; type: in vivo; conditions: rats killed 1 hour after peritoneal injection of 2.5 mg/kg LPS, compared with saline alone
Procedure: Male Sprague-Dawley rats (Samtako, Osan, Korea) weighing 190-220 g were used as experimental models for intraperitoneal LPS injection as described previously. All experimental procedures were approved by the Seoul National University Care of Experimental Animals Committee. A solution of LPS (2.5 mg/kg) in 0.9% saline or 0.9% sterile saline was intraperitoneally injected into rats. To determine the effect of TGase inhibitors, rats were intraperitoneally injected with an R2 peptide (25 μM), an E2 peptide (25 μM, and dexamethasome (1 mg/kg) at 30 min before and at the time of LPS injection. Dexamethasome injection was used as a positive control.
After 1 hour of intraperitoneal injection with LPS or saline, rats were anesthetized with 1% ketamine (30 mg/kg) and xylazine hydrochloride (4 mg/kg). Brains were perfused through the heart with saline containing 0.5% sodium nitrite and 10 units/ml heparin, followed by perfusion with 4% paraformaldehyde in PBS (0.1 M, pH 7.2). Brains were removed, rinsed with PBS, and cryoprotected in sucrose. Sections were prepared on a sliding microtome (40 μm) at the level of the subfornical organ. A monoclonal antibody (TG-100; NeoMarkers) to TGase 2 was used to subject TGase 2 to immunohistochemical staining. Brain sections were blocked with 1% BSA in PBS and incubated overnight with a primary antibody solution (1:200 dilution). […]

TGase 2 [4] = conditions: microglia after 24 hours of exposure to LPS; previous study (Park et al. 2004); cited from earlier work

lipopolysaccharide [LPS]
release of NO, increase (BV-2 microglia): 10 fold
TGase 2 by RT-PCR, increase (TGase 2 [1]): 3 fold
TGase 2 activity, increase (TGase 2 [2]): 5 fold
iNOS by RT-PCR, increase (iNOS): 10 fold
TGase 2 expression in brains (TGase 2 [3]): increased
TGase activity, increase (TGase 2 [4]): about 5 fold
